Test results taken from patent publication US12440571B2, “Immune agonists” (SHENZHEN UNIVERSITY, priority 2020, dated 2025).

Key:
Format in all cases: cell-based
[1] = tested on: human lymphoma Raji cells; assay: CCK8 growth inhibition, Raji; conditions: Homo sapiens, Raji, CCK8 method; read-out: IC50 of inhibitory activity on tumor cell growth, Raji
[2] = tested on: human leukemia K562 cells; assay: CCK8 growth inhibition, K562; conditions: CCK8 method, read-out: IC50 of inhibitory activity on tumor cell growth, K562
[3] = tested on: A549; assay: CCK8 growth inhibition, A549; conditions: Homo sapiens, CCK8 method, read-out: IC50 of inhibitory activity on tumor cell growth, A549
[4] = tested on: murine leukemia WEHI-3 cells; assay: CCK8 growth inhibition, WEHI-3; conditions: Mus musculus, CCK8 method, read-out: IC50 of inhibitory activity on tumor cell growth, WEHI-3
[5] = tested on: human colon cancer HCT-116 cells; assay: CCK8 growth inhibition, HCT-116; conditions: CCK8 method, read-out: IC50 of inhibitory activity on tumor cell growth, HCT-116

Q: CCCCOc1nc(N)c2nc(O)n(Cc3cn(CCCCN4CCN(CCCNC(=S)N5CCCC(n6nc(-c7ccc(Oc8ccccc8)cc7)c7c(N)ncnc76)C5)CC4)nn3)c2n1 (stereo not drawn) [GY161] was tested. Which IC50 [1] did it give?
A: 16.1 µM

Q: With CCCCOc1nc(N)c2nc(O)n(Cc3cn(CCOCCOCCOCCNC(=S)N4CCCC(n5nc(-c6ccc(Oc7ccccc7)cc6)c6c(N)ncnc65)C4)nn3)c2n1 (stereo not drawn) [GY112] as the compound, how does the IC50 [2] read?
A: 14.6 µM

Q: What about the IC50 [3] of the same compound?
A: 16.8 µM

Q: And the IC50 [1]?
A: 10.6 µM

Q: What about the IC50 [4] of the same compound?
A: 5.31 µM

Q: What about the IC50 [5] of the same compound?
A: 15.7 µM

Q: Which results are given for CCCCOc1nc(N)c2nc(O)n(Cc3cn(CCOCCOCCOCCNC(=S)Nc4cc(Nc5nccc(-c6cn(C)c7ccccc67)n5)c(OC)cc4N(C)CCN(C)C)nn3)c2n1 [GY127]?
A: IC50 [2]: 17.8 µM; IC50 [3]: 23.2 µM; IC50 [5]: 20.8 µM
